Values joined by “and” are separate entries in the source; they are usually repeats but may differ in a detail not shown here. Equal entries are not always repeated.

Data set [1] has as its target T1, α-Amylase from porcine pancreas (Sus scrofa, UniProt P00690).
T1 construct: α-Amylase from porcine pancreas, bovine serum albumin (BSA); purchased SIGMA-Aldrich (Merck KGaA, Darmstadt, Germany); host or cells: porcine pancreas
T1 sequence (P00690 16-511): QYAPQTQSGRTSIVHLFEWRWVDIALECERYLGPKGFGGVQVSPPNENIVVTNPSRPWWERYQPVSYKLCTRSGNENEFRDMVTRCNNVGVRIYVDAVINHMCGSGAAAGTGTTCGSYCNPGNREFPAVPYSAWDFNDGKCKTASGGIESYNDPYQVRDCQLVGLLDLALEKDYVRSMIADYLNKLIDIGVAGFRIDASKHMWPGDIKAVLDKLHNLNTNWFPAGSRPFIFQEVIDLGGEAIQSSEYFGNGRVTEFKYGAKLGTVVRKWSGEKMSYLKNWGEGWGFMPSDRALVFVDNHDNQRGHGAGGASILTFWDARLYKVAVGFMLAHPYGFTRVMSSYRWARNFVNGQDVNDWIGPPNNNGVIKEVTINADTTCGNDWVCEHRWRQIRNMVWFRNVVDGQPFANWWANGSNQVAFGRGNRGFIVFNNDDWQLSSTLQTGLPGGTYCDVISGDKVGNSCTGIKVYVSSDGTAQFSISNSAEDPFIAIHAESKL
The data set can be described thus: Inhibition of the α-amylase activity (DNS/starch). Format: biochemical. As to conditions: 1.8 × 10^−2 and 2.0 × 10^−2 M, compared to DMSO. The procedure:
The capacity of the obtained complexes to inhibit pancreatic α-amylase activity in vitro was analyzed using a slightly modified procedure of the one described by Apostolidis and Lee. Thus, 100 µL solution of complexes (1.8 ÷ 2.5 × 10^−2 M), 2.5 × 10^−2 M V^IVOSO4•3H2O, 2.5 × 10^−2 M acarbose (positive control) and 12.5% DMSO (negative control) in reaction buffer (2 × 10^−2 M sodium phosphate, pH 6.9 with 6 × 10^−3 M sodium chloride) were pre-exposed to 100 µL of 20 units/mL α-amylase in reaction buffer for 10 min at room temperature. Then, 100 µL of 1% starch solution in reaction buffer were added and the samples were incubated at room temperature for 10 min. The reaction was stopped with 200 µL of 3, 5-dinitrosalicylic acid (DNS). The samples were heated at 90 ÷ 95 °C for 10 min and then left to cool down at room temperature. The reaction mixture was further diluted with 4 mL of distilled water. As a control for the inhibitory effect of acarbose, a sample containing starch and enzyme was used. The yellow/orange color intensity was measured using the microplate reader TECAN Infinite M200Pro at 540 nm. The experiment was performed in triplicate. The blank (sample without starch and enzyme) absorbance was subtracted from the absorbance of all samples and the activity of α-amylase was expressed as % of DMSO (negative control).

Data set [2] in a line: Solution stability over time in PBS by UV-Vis spectrophotometry. It counts as physicochemical. The note with it: for decrease in the intensity of λmax: 2 × 10^−4 M in PBS pH 7.4, 37 °C; for stability in PBS: physiological pH (7.4), 37 °C. The procedure:
Electronic absorption spectra for the 2 × 10^−4 M solution of the four oxidovanadium(V) complexes in PBS at pH 7.4 were recorded outright on the prepared solutions (designated as T 0 h in the histograms), after the preparation at 1 h (T 1 h), 3 h (T 3 h), 6 h (T 6 h), 9 h (T 9 h), and 24 h (T 24 h), respectively. The prepared solutions were incubated at 37 °C, and the readings were performed over the entire 500 ÷ 230 nm range using a microplate reader spectrophotometer TECAN Infinite M200Pro and a 96-well UV micro test plate. The data were expressed as the average ± SD of three independent measurements.

In data set [3] the target is T2, bovine serum albumin (BSA) (Bos taurus, UniProt P02769).
T2 construct: α-Amylase from porcine pancreas, bovine serum albumin (BSA); purchased SIGMA-Aldrich (Merck KGaA, Darmstadt, Germany)
Kind of data set: Fluorescence quenching of serum albumin (Stern–Volmer). As to conditions: for Stern–Volmer constant KSV: BSA 2 × 10^−6 M, PBS pH 7.4, emission 347 nm; for decrease of BSA fluorescence intensity: highest tested concentration (2.5 × 10^−5 M), 2 × 10^−6 M BSA, PBS pH 7.4, vs free BSA and BSA with DMSO; for collision quenching constant Kq (Kq = Ksv/τ0): τ0 = 10^−8 s. It counts as binding. The procedure:
The capacity of the oxidovanadium(V) compounds to bind to bovine serum albumin (BSA) was monitored by fluorescence quenching assay. A solution of 2 × 10^−6 M BSA in PBS, pH 7.4, was incubated for 2 h at 37 b0C with each vanadium-based compound or V^IVOSO4•3H2O at increasing molar concentrations (1 × 10^−6 ÷ 2.5 × 10^−5 M) or with 0.025% DMSO (negative control). The samples were excited at 295 nm and the emission spectra of all BSA solutions were recorded in the 300 ÷ 450 nm range using a JASCO FP-750 spectrofluorometer. The final spectrum was the average of three recordings measured at a scanning speed of 250 nm/minute, with an excitation and emission bandwidth of 5 nm. […] In addition, by applying the Stern–Volmer equation [23], the mechanism by which the complexes bind to BSA was investigated as it is described in the Supplementary material.
The Stern–Volmer e quation
The Stern–Vol mer equation [1] is:
I0/I= 1+ Kqτ0[Q] = 1 + Ksv[Q], where: I0 = the fluor escence intensities of fr ee BS A solution at 347 nm, I = the fluorescence intensities of BS A solution at 347 nm in the presence of vanadium […]
[Q] = the concentration of vanadium co mplexes, τ0 = the fluorescence l ifetime of the biopolymer (10-8 s), Kq = the coll isi on quenching constant;
Ksv = the Stern-Volmer constant.
Stern–Vol mer plots of the B SA fluorescence quenching in t he prese nce of each compou nd are represented in Fig. S4, together with the ir linear best fit in which y = I0/I, x = [Q], a = slope of the li ne, […]
The fluorescence intensitie s are the average of three recordings measured at a scanning speed of 250 nm/min, with an excitation and emissio n bandwidth of 5 nm.

The subject of a further data set is HepG2 cells. The data set can be described thus: Cytotoxicity, XTT cell viability assay. The note with it: 1 × 10^−5 M, 24 h, compared to DMSO treated cells. It counts as cell-based, human. (In general: Tetrazolium dyes change colour on reduction, which living cells bring about.)
For the next data set, the system named is insulin receptor (INS R). Kind of data set: Quantification of phosphorylated insulin receptor by immunoblotting in HepG2 cells. The note with it: 10^−7 M insulin. Format: cell-based, human. The procedure:
To investigate the effect of oxidovanadium(V) complexes on insulin receptor (INS R) phosphorylation, HepG2 cells (1.0 × 10^5 cells/mL) were treated with 2.5 × 10^−5 M oxidovanadium(V) compounds, V^IVOSO4•3H2O, and 10^−7 M insulin (positive control) for 3 and 24 h, respectively. As negative controls, cells exposed to free-complete medium (negative control for treatment with V^IVOSO4•3H2O and insulin) and cells exposed to 0.0125% DMSO (negative control for treatment with complexes) were used.
After cell lysis, 50 µg of total protein was denatured by adding 1/5th volume of Laemmli’s buffer 6× (15% SDS, 0.01% bromophenol blue, 74% glycerol, 7.5 × 10^−2 M Tris, pH 6.8, 1/8th volume of 2-mercaptoethanol) followed by heating at 95 °C for 5 min. […]
The separated proteins were transferred (using a Trans-Blot Semi-Dry transfer cell, Bio-Rad) to a nitrocellulose membrane (0.45 µm, Bio-Rad), blocked with 1% BSA for 1 hour, and incubated overnight with the primary antibody: Mouse anti-insulin receptor-β chain (INS R-β) (1:500, Santa Cruz Biotechnology cat. No. sc-57342), rabbit anti-phosphorylated INS R-Y1162/3 (pINS R, 1:400, R&D Systems, Minneapolis, MN, USA cat. No. AF2507) and mouse anti-β-actin (1/2000, Bio-Rad cat. no. MCA5775GA). […] The data were expressed as the mean ± SD of two individual experiments performed in duplicate.

Where [4] appears, read: ratio of BSA quenching constants.

T2 sequence (P02769 25-607): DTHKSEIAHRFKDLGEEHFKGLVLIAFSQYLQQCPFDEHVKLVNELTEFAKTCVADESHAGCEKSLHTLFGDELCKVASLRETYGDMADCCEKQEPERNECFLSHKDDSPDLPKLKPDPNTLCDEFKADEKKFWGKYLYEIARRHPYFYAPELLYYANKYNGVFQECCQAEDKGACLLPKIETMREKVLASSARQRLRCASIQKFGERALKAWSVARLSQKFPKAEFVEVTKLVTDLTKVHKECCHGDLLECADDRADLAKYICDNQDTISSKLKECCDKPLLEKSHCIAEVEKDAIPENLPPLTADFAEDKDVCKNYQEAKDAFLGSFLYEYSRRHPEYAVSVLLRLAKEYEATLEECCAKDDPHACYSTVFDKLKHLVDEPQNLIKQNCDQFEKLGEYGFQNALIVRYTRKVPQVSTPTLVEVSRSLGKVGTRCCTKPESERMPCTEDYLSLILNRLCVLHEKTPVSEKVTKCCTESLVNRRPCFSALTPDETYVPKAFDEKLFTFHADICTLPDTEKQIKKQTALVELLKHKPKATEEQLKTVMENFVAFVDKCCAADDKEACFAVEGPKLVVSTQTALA

Take `CC(C)[C@H](N=Cc1ccccc1[O-])C(=O)[O-].CC(C)[C@H](N=Cc1ccccc1[O-])C(=O)[O-].O.[O]=[V+2][O][V+2]=[O]` [1b, [{V^VO(S-salval)(H2O)}(μ2-O){V^VO(S-salval)}]]: the “inhibitory effect on α-amylase activity” value in data set [1] is “more than 18%”. Besides, the “decrease in the intensity of λmax” value is “about 10%” in data set [2] (1 h vs T 0 h); “about 25%” in data set [2] (3 h vs T 0 h); “about 40%” in data set [2] (6 h vs T 0 h); “about 50%” in data set [2] (9 h vs T 0 h); “about 70%” in data set [2] (24 h vs T 0 h). Also, the “stability in PBS” value in data set [2] was “stable in PBS at physiological pH and temperature for up to three hours”. In data set [3], the “Stern–Volmer constant KSV” value was 60100 M⁻¹. Besides, the “decrease of BSA fluorescence intensity” value in data set [3] is given as “about 60%”. The “collision quenching constant Kq (Kq = Ksv/τ0)” value (“collision quenching constant Kq” for short) in data set [3] was 6.01e+12 M⁻¹ s⁻¹.
Regarding `CO.CO.COc1cccc2c1[O][V](=[O])([O][V]1(=[O])[O]C(=O)[C@@H](C(C)C)N=Cc3cccc(OC)c3[O]1)[O]C(=O)[C@@H](C(C)C)N=C2` (some centres unmarked) [2a, [{V^VO(R-vanval)(CH3OH)}2(μ2-O)]], in data set [1], the “increase of α-amylase enzyme activity” value came to 35%. Besides, the “decrease in the intensity of λmax” value in data set [2] (1 h vs T 0 h) is “less than 10%”; in data set [2] (3 h vs T 0 h) it was “less than 20%”; in data set [2] (6 h vs T 0 h) it was roughly 20%; in data set [2] (9 h vs T 0 h) it was roughly 30%; in data set [2] (24 h vs T 0 h), roughly 30%. The “stability in PBS” value in data set [2] is “stable in PBS at physiological pH and temperature for up to three hours”. In addition, the “Stern–Volmer constant KSV” value in data set [3] is 171800 M⁻¹. Further, the “decrease of BSA fluorescence intensity” value in data set [3] was roughly 80%. Also, the “Kq(2a)/Kq(1a)” value in data set [3] (setting [4]) is 2 and 2.12. Further, in data set [3] (setting [4]), the “Kq(2a)/Kq(2b)” value turned out to be 0.69. Besides, in data set [3], the “collision quenching constant Kq” value came out at 1.718e+13 M⁻¹ s⁻¹.
In the case of `N.N.[Cl][Pt][Cl]` [cisplatin], the “reduction of HepG2 viability” value in the data set with HepG2 cells is on record as 44%.
As for “insulin: human recombinant insulin, positive control for INS R phosphorylation”, in the data set with insulin receptor (INS R) (3 h, HepG2, compared to cells exposed to free-complete medium), the “increase of INS R phosphorylation” value is “about 80%”. In the data set on insulin receptor (INS R) (24 h, HepG2, compared to control cells), the “INS R phosphorylation” value was “reduced and insignificant”.
For the compound `CC(C)[C@H]1N=Cc2ccccc2[O][V](=[O])([O][V]2(=[O])[O]C(=O)[C@@H](C(C)C)N=Cc3ccccc3[O]2)[O]C1=O.O` (some centres unmarked) [1a, [{V^VO(R-salval)(H2O)}(μ2-O){V^VO(R-salval)}]], the “inhibitory effect on α-amylase activity” value in data set [1] is “more than 18%”. For the same compound, the “decrease in the intensity of λmax” value is “about 10%” in data set [2] (1 h vs T 0 h); “about 25%” in data set [2] (3 h vs T 0 h); “about 40%” in data set [2] (6 h vs T 0 h); “about 50%” in data set [2] (9 h vs T 0 h); “about 70%” in data set [2] (24 h vs T 0 h). For the same compound, the “stability in PBS” value in data set [2] was “stable in PBS at physiological pH and temperature for up to three hours”. For the same compound, the “Stern–Volmer constant KSV” value in data set [3] worked out at 80700 M⁻¹. Also, in data set [3], the “decrease of BSA fluorescence intensity” value is “about 60%”. Moreover, in data set [3] (setting [4]), the “Kq(1a)/Kq(1b)” value was 1.34. In data set [3], the “collision quenching constant Kq” value is 8.07e+12 M⁻¹ s⁻¹.
For `CO.CO.COc1cccc(C=N[C@H](C(=O)[O-])C(C)C)c1[O-].COc1cccc(C=N[C@H](C(=O)[O-])C(C)C)c1[O-].[O]=[V+2][O][V+2]=[O]` [2b, [{V^VO(S-vanval)(CH3OH)}2(μ2-O)]], the “increase of α-amylase enzyme activity” value in data set [1] is on record as 35%. Further, the “decrease in the intensity of λmax” value is “less than 10%” in data set [2] (1 h vs T 0 h); “less than 20%” in data set [2] (3 h vs T 0 h); roughly 20% in data set [2] (6 h vs T 0 h); roughly 30% in data set [2] (9 h vs T 0 h); roughly 30% in data set [2] (24 h vs T 0 h). Also, the “stability in PBS” value in data set [2] is “stable in PBS at physiological pH and temperature for up to three hours”. Moreover, in data set [3], the “Stern–Volmer constant KSV” value stood at 248900 M⁻¹. Also, the “decrease of BSA fluorescence intensity” value in data set [3] is roughly 80%. Besides, the “Kq(2b)/Kq(1b)” value in data set [3] (setting [4]) was 4 and 4.14. In addition, the “collision quenching constant Kq” value in data set [3] was found to be 2.489e+13 M⁻¹ s⁻¹.
